Test results reported in US10233180B2, “Substituted nitrogen-containing heterocyclic derivatives, pharmaceutical compositions comprising the same and applications of antitumor thereof” (ZHEJIANG UNIVERSITY, priority 2014, dated 2019).
pIC50: −log10 of the molar value.

Assays:
[1] = test system: Human ovarian cancer cell strain OVCAR-8; assay: MTT assay, inhibition of tumor cell growth in vitro, 72 h; assay type: cell-based; settings: Homo sapiens, OVCAR-8, MTT, read-out: Antitumor proliferative activities of tumor cell (IC50, μM) OVCAR-8
Method in brief: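 OVCAR8 cells in RPMI 1640 plus FBS were seeded at 4000 cells/well and exposed for 72 h at 37 °C to compound at 50, 10, 2, 0.4 and 0.08 μM final, with 1% DMSO as blank. Inhibition was calculated from OD relative to control, and IC50 was derived by the Bliss method.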

[2] = target: T1, Akt1 (Homo sapiens, UniProt P31749); assay: AKT1/PKBα KinEASE FP Fluorescein Green Assay (fluorescence polarization kinase kit); assay type: biochemical; settings: 1 h reaction, read-out: Inhibitory activities against Akt1 (IC50)
T1 construct: purchased 32-021
T1 sequence (P31749 whole entry): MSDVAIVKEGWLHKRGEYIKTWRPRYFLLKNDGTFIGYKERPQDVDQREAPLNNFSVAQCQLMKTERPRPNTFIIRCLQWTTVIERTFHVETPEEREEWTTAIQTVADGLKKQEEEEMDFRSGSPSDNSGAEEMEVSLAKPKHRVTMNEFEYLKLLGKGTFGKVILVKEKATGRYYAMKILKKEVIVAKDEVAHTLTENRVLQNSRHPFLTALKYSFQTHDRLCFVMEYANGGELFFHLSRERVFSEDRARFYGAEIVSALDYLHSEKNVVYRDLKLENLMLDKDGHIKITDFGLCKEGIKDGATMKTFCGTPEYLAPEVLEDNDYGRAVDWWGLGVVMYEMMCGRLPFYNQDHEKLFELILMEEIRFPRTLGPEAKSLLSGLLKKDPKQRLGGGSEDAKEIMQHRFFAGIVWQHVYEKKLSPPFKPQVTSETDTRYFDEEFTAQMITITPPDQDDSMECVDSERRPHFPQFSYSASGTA
Method in brief: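 FP competition kinase assay: compounds (50 μM stock) with STK Substrate 3 and ATP, 1 h reaction at room temperature; stopped with stop/antibody mix, 4 h at room temperature, then polarization read. Inhibition derived from polarization values; IC50 calculated; triplicate wells.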

[3] = test system: human colon cancer cell strain HCT-116; assay: MTT assay, inhibition of tumor cell growth in vitro, 72 h; assay type: cell-based; settings: Homo sapiens, HCT-116, MTT, read-out: Antitumor proliferative activities of tumor cell (IC50, μM) HCT-116 (converted)
Method in brief: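 Cells in RPMI 1640 with FBS, 4000 cells/well, exposed 72 h at 37 °C, 5% CO2 to final 50, 10, 2, 0.4 and 0.08 μM; 1% DMSO blank. MTT OD gives % inhibition versus control; IC50 derived by Bliss method.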

Compound	IC50 [1] [µM]	pIC50 [2]	IC50 [3] [µM]
CN(C)CCC1C[C@@H](c2ccc(Cl)c(Cl)c2)[C@H](NC(=O)c2cc(-c3c(Cl)cnn3C)c(Cl)o2)CN1 (stereo partly drawn) [Compound 107, 5-chloro-4-(4-chloro-1-methyl-1H-pyrazol-5-yl)-N-((3S,4S)-4-(3,4-dichlorophenyl)-6-(2-(dimethylamino)ethyl)piperidin-3-yl)furan-2-formamide]	1.01	7.85	1.08
CC(=O)NCCC1C[C@@H](c2ccc(F)c(F)c2)[C@H](NC(=O)c2cc(-c3c(Cl)cnn3C)c(Cl)o2)CN1 (stereo partly drawn) [Compound 126, N-((3S,4S)-6-(2-acetaminoethyl)-4-(3,4-difluorophenyl)piperidin-3-yl)-5-chloro-4-(4-chloro-1-methyl-1H-pyrazol-5-yl)furan-2-formamide]	0.47	9.70	5.82
Cn1ncc(Cl)c1-c1ccc(C(=O)N[C@@H]2CNCC[C@H]2c2cccc(F)c2)s1 [Compound 138, 5-(4-chloro-1-methyl-1H-pyrazol-5-yl)-N-((3S,4S)-4-(3-fluorophenyl)piperidin-3-yl)thiophene-2-formamide]	3.01	9.00	0.56
Cn1ncc(Cl)c1-c1cc(C(=O)N[C@H]2CNCC[C@@H]2c2ccc(Cl)cc2)oc1Cl (racemic) [Compound 2, 5-chloro-4-(4-chloro-1-methyl-1H-pyrazol-5-yl)-N-(3,4-trans-4-(4-chlorphenyl)piperidin-3-yl)furan-2-formamide]	6.45	7.00	1.41
Cn1ncc(Cl)c1-c1cc(C(=O)N[C@@H]2CNC(CCN3CCCC3)C[C@H]2c2ccc(Cl)c(Cl)c2)oc1Cl (stereo partly drawn) [Compound 110, 5-chloro-4-(4-chloro-1-methyl-1H-pyrazol-5-yl)-N-((3S,4S)-4-(3,4-dichlorophenyl)-6-(2-(pyrrolidin-1-yl)ethyl)piperidin-3-yl)furan-2-formamide]	1.21	7.96	0.89
Cn1ncc(Cl)c1-c1cc(C(=O)N[C@@H]2CNC(CC(=O)NCC(O)CO)C[C@H]2c2ccc(Cl)c(Cl)c2)oc1Cl (stereo partly drawn) [Compound 121, 5-chloro-4-(4-chloro-1-methyl-1H-pyrazol-5-yl)-N-((3S,4S)-4-(3,4-dichlorophenyl)-6-(2-((2,3-dihydroxypropyl)amido)-2-oxoethyl)piperidin-3-yl)furan-2-formamide]	0.74	8.30	0.36
Cn1ncc(Cl)c1-c1cc(C(=O)N[C@H]2CNCC[C@@H]2c2ccccc2)oc1Cl (racemic) [Compound 29, 5-chloro-4-(4-chloro-1-methyl-1H-pyrazol-5-yl)-N-(3,4-trans-4-phenylpiperidin-3-yl)furan-2-formamide]	1.12	7.21	8.67
CC(Cl)c1ccc([C@H]2CCNC[C@@H]2NC(=O)c2cc(Cl)c(-c3ncnn3C)s2)cc1 (stereo partly drawn) [Compound 8, 4-chloro-5-(1-methyl-1H-1,2,4-triazol-5-yl)-N-(3,4-trans-4-(4-(1-chloroethyl)phenyl)piperidin-3-yl)thiophene-2-formamide]	9.01	7.09	3.26
Cn1ncc(Cl)c1-c1ccc(C(=O)N[C@@H]2CNCC[C@H]2c2ccc(F)c(F)c2)cc1Cl [Compound 78, 3-chloro-4-(4-chloro-1-methyl-1H-pyrazol-5-yl)-N-((3S,4S)-4-(3,4-difluorophenyl)piperidin-3-yl)benzamide]	0.76	8.22	2.03
Cn1ncc(Cl)c1-c1cc(C(=O)N[C@@H]2CNC(CC(=O)NC3CCC3)C[C@H]2c2ccc(Cl)c(Cl)c2)oc1Cl (stereo partly drawn) [Compound 120, 5-chloro-4-(4-chloro-1-methyl-1H-pyrazol-5-yl)-N-((3S,4S)-6-(2-(cyclobutylamido)-2-oxoethyl)-4-(3,4-dichlorophenyl)piperidin-3-yl)furan-2-formamide]	0.45	8.52	0.44
Cn1nccc1-c1ccc(C(=O)N[C@@H]2CNCC[C@H]2c2ccc(F)c(F)c2)cc1 [Compound 77, N-((3S,4S)-4-(3,4-difluorophenyl)piperidin-3-yl)-4-(1-methyl-1H-pyrazol-5-yl)benzamide]	3.68	7.74	2.81
Cc1cc(C(=O)N[C@@H]2CNCC[C@H]2c2ccc(F)c(F)c2)ncc1-c1c(Cl)cnn1C [Compound 94, 5-(4-chloro-1-methyl-1H-pyrazol-5-yl)-N-((3S,4S)-4-(3,4-difluorophenyl)piperidin-3-yl)-4-methylpicolinamide]	1.22	8.15	0.89
Cn1ncc(Cl)c1-c1cnc(C(=O)N[C@@H]2CNCC[C@H]2c2ccc(Cl)c(C(F)(F)F)c2)cc1Cl [Compound 95, 4-chloro-5-(4-chloro-1-methyl-1H-pyrazol-5-yl)-N-((3S,4S)-4-(4-chloro-3-(trifluoromethyl)phenyl)piperidin-3-yl)picolinamide]	0.98	7.77	0.95
Cn1ncc(Cl)c1-c1ccc(C(=O)N[C@@H]2CNCC[C@H]2c2c[nH]c3ccccc23)cc1Cl [Compound 89, N-((3S,4S)-4-(1H-indol-3-yl)piperidin-3-yl)-3-chloro-4-(4-chloro-1-methyl-1H-pyrazol-5-yl)benzamide]	5.69	7.96	1.02
CCC[C@H]1CNC[C@@H](NC(=O)c2cc(-c3c(Cl)cnn3C)c(Cl)s2)[C@@H]1c1cccc(F)c1 [Compound 134, 5-chloro-4-(4-chloro-1-methyl-1H-pyrazol-5-yl)-N-((3S,4S,5R)-4-(3-fluorophenyl)-5-propylpiperidin-3-yl)thiophene-2-formamide]	0.53	9.52	0.69

The remaining molecules from weak to strong by IC50 [1], led by results:

IC50 [1] [µM]	pIC50 [2]	IC50 [3] [µM]	Compound
14.3	6.92	6.8	Cc1sc(C(=O)N[C@H]2CNCC[C@@H]2c2ccc(F)c(F)c2)cc1-c1c(Cl)cnn1C (racemic) [Compound 5, 5-methyl-4-(4-chloro-1-methyl-1H-pyrazol-5-yl)-N-(3,4-trans-4-(3,4-difluorophenyl)piperidin-3-yl)thiophene-2-formamide]
5.79	8.52	0.42	CNC(=O)CC1C[C@@H](c2ccc(F)c(F)c2)[C@H](NC(=O)c2cc(-c3c(Cl)cnn3C)cs2)CN1 (stereo partly drawn) [Compound 133, 4-(4-chloro-1-methyl-1H-pyrazol-5-yl)-N-((3S,4S)-4-(3,4-difluorophenyl)-6-(2-(methylamido)-2-oxyethyl)piperidin-3-yl)thiophene-2-formamide]
5.36	7.28	2.24	Cn1ncc(Br)c1-c1csc(C(=O)N[C@H]2CNCC[C@@H]2c2ccc(Cl)cc2)c1 (racemic) [Compound 37, 4-(4-bromo-1-methyl-1H-pyrazol-5-yl)-N-(3,4-trans-4-(4-chlorphenyl)piperidin-3-yl)thiophene-2-formamide]
3.48	6.46	3.22	Cn1ncc(Cl)c1-c1coc(C(=O)N[C@H]2CNC[C@@H]2c2ccc(F)c(F)c2)c1 (racemic) [Compound 66]
3.38	6.98	3.28	Cn1ncc(Cl)c1-c1csc(C(=O)N[C@H]2CNCC[C@@H]2c2ccc(F)c(F)c2)c1 (racemic) [Compound 36, 4-(4-chloro-1-methyl-1H-pyrazol-5-yl)-N-(3,4-trans-4-(3,4-difluorophenyl)piperidin-3-yl)thiophene-2-formamide]
1.94	7.29	0.56	CNC(=O)CC1C[C@@H](c2ccc(F)c(F)c2)[C@H](NC(=O)c2cc(-c3c(Cl)cnn3C)c(Cl)o2)CN1 (stereo partly drawn) [Compound 105, 5-chloro-4-(4-chloro-1-methyl-1H-pyrazol-5-yl)-N-((3S,4S)-4-(3,4-difluorophenyl)-6-(2-(methylamido)-2-oxoethyl)piperidin-3-yl)furan-2-formamide]
1.47	6.91	18.1	Cn1nccc1-c1csc(C(=O)N[C@H]2CNCC[C@@H]2c2ccc(Cl)cc2)c1 (racemic) [Compound 32, 4-(1-methyl-1H-pyrazol-5-yl)-N-(3,4-trans-4-(4-chlorphenyl)piperidin-3-yl) thiophene-2-formamide]
1.34	8.22	0.92	Cn1ncc(Br)c1-c1ccc(C(=O)N[C@@H]2CNCC[C@H]2c2ccc(Cl)cc2)cc1 [Compound 72, 4-(4-bromo-1-methyl-1H-pyrazol-5-yl)-N-((3S,4S)-4-(4-chlorophenyl)piperidin-3-yl)benzamide]
0.98	7.74	2.9	Cn1ncc(Cl)c1-c1coc(C(=O)N[C@H]2CNCC[C@@H]2c2ccc(C(F)(F)F)cc2)c1 (racemic) [Compound 24, 4-(4-chloro-1-methyl-1H-pyrazol-5-yl)-N-(3,4-trans-4-(4-trifluoromethylphenyl)piperidin-3-yl)furan-2-formamide]
0.43	8.15	2.11	CNS(=O)(=O)CC1C[C@@H](c2ccc(F)c(F)c2)[C@H](NC(=O)c2ccc(-c3c(Cl)cnn3C)c(F)c2)CN1 (stereo partly drawn) [Compound 101]
